# Tested on: 299254-011-R-J1-PDC complex spheroid viability
# Test: Anticancer human tumor 299254-011-R-J1-PDC patient-derived melanoma cell line growth inhibition [POLQ]
# Conditions: for IC50: curve of first compound; for viability, T/C: stronger effect = lower value
# Method in brief: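 Growth inhibition in 3D: complex spheroids (tumor PDC, HUVEC, MSC) treated with POLQ inhibitor combinations; where Cmax unknown, highest tested concentration 10 microM, except SN-38 at 1 microM.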
# [1] = second compound 0.0316 µM, first compound 0.0316 µM
# [2] = second compound 0.0316 µM, first compound 0.1 µM
# [3] = second compound 0.0316 µM, first compound 0.316 µM
# [4] = second compound 0.0316 µM, first compound 1 µM
# [5] = second compound 0.0316 µM, first compound 3.16 µM
# [6] = second compound 0.0316 µM, first compound 10 µM
# [7] = second compound 0.1 µM, first compound 0.0316 µM
# [8] = second compound 0.1 µM, first compound 0.1 µM
# [9] = second compound 0.1 µM, first compound 0.316 µM
# [10] = second compound 0.1 µM, first compound 1 µM
# [11] = second compound 0.1 µM, first compound 3.16 µM
# [12] = second compound 0.1 µM, first compound 10 µM
# [13] = second compound 0.316 µM, first compound 0.0316 µM
# [14] = second compound 0.316 µM, first compound 0.1 µM
# [15] = second compound 0.316 µM, first compound 0.316 µM
# [16] = second compound 0.316 µM, first compound 1 µM
# [17] = second compound 0.316 µM, first compound 3.16 µM
# [18] = second compound 0.316 µM, first compound 10 µM
# [19] = second compound 1 µM, first compound 0.0316 µM
# [20] = second compound 1 µM, first compound 0.1 µM
# [21] = second compound 1 µM, first compound 0.316 µM
# [22] = second compound 1 µM, first compound 1 µM
# [23] = second compound 1 µM, first compound 3.16 µM
# [24] = second compound 1 µM, first compound 10 µM
# [25] = second compound 3.16 µM, first compound 0.0316 µM
# [26] = second compound 3.16 µM, first compound 0.1 µM
# [27] = second compound 3.16 µM, first compound 0.316 µM
# [28] = second compound 3.16 µM, first compound 1 µM
# [29] = second compound 3.16 µM, first compound 3.16 µM
# [30] = second compound 3.16 µM, first compound 10 µM
# [31] = second compound 10 µM, first compound 0.0316 µM
# [32] = second compound 10 µM, first compound 0.1 µM
# [33] = second compound 10 µM, first compound 0.316 µM
# [34] = second compound 10 µM, first compound 1 µM
# [35] = second compound 10 µM, first compound 3.16 µM
# [36] = second compound 10 µM, first compound 10 µM
# 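Further: spheroids exposed to drugs for one week before measurement.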
# 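Wherever viability, T/C is given: percent viability relative to DMSO vehicle control taken as 100%.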
smiles,measurement,setting,value
CC1COCCN1c1cc(C2(S(C)(=N)=O)CC2)nc(-c2ccnc3[nH]ccc23)n1 (centres undefined) + Nc1ccc(C#CCN(C(=O)Cc2ncc(C(F)(F)F)cc2C(F)(F)F)c2ccc(F)cc2)nn1,IC50,second compound 0.0316 µM,8.31 µM
same,IC50,second compound 0.1 µM,5.12 µM
same,IC50,second compound 0.316 µM,5.54 µM
same,IC50,second compound 1 µM,5.56 µM
same,IC50,second compound 3.16 µM,3.74 µM
same,IC50,second compound 10 µM,2.9 µM
same,"viability, T/C",[1],123%
same,"viability, T/C",[2],89.2%
same,"viability, T/C",[3],110%
same,"viability, T/C",[4],84.3%
same,"viability, T/C",[5],63.9%
same,"viability, T/C",[6],47%
same,"viability, T/C",[7],117%
same,"viability, T/C",[8],117%
same,"viability, T/C",[9],100%
same,"viability, T/C",[10],83.8%
same,"viability, T/C",[11],56.3%
same,"viability, T/C",[12],40.3%
same,"viability, T/C",[13],107%
same,"viability, T/C",[14],110%
same,"viability, T/C",[15],87.3%
same,"viability, T/C",[16],89.2%
same,"viability, T/C",[17],63%
same,"viability, T/C",[18],34.9%
same,"viability, T/C",[19],105%
same,"viability, T/C",[20],111%
same,"viability, T/C",[21],94.4%
same,"viability, T/C",[22],94.8%
same,"viability, T/C",[23],59.1%
same,"viability, T/C",[24],39.8%
same,"viability, T/C",[25],99%
same,"viability, T/C",[26],91.8%
same,"viability, T/C",[27],102%
same,"viability, T/C",[28],82.1%
same,"viability, T/C",[29],53.2%
same,"viability, T/C",[30],35.5%
same,"viability, T/C",[31],91.5%
same,"viability, T/C",[32],99.2%
same,"viability, T/C",[33],84.8%
same,"viability, T/C",[34],76%
same,"viability, T/C",[35],46.7%
same,"viability, T/C",[36],37.1%
CCCS(=O)(=O)Nc1ccc(F)c(C(=O)c2c[nH]c3ncc(-c4ccc(Cl)cc4)cc23)c1F + Nc1ccc(C#CCN(C(=O)Cc2ncc(C(F)(F)F)cc2C(F)(F)F)c2ccc(F)cc2)nn1,IC50,second compound 0.0316 µM,9.62 µM
same,IC50,second compound 0.1 µM,9.01 µM
same,IC50,second compound 0.316 µM,9.95 µM
same,IC50,second compound 1 µM,8.98 µM
same,IC50,second compound 3.16 µM,> 10 µM
same,IC50,second compound 10 µM,> 10 µM
same,"viability, T/C",[1],109%
same,"viability, T/C",[2],128%
same,"viability, T/C",[3],122%
same,"viability, T/C",[4],120%
same,"viability, T/C",[5],108%
same,"viability, T/C",[6],47.8%
same,"viability, T/C",[7],92.7%
same,"viability, T/C",[8],117%
same,"viability, T/C",[9],119%
same,"viability, T/C",[10],110%
same,"viability, T/C",[11],104%
same,"viability, T/C",[12],44.6%
same,"viability, T/C",[13],97.5%
same,"viability, T/C",[14],93.5%
same,"viability, T/C",[15],112%
same,"viability, T/C",[16],111%
same,"viability, T/C",[17],129%
same,"viability, T/C",[18],49.7%
same,"viability, T/C",[19],97.3%
same,"viability, T/C",[20],99.2%
same,"viability, T/C",[21],106%
same,"viability, T/C",[22],121%
same,"viability, T/C",[23],122%
same,"viability, T/C",[24],43.8%
same,"viability, T/C",[25],108%
same,"viability, T/C",[26],140%
same,"viability, T/C",[27],140%
same,"viability, T/C",[28],101%
same,"viability, T/C",[29],106%
same,"viability, T/C",[30],50.7%
same,"viability, T/C",[31],94.8%
same,"viability, T/C",[32],98.6%
same,"viability, T/C",[33],109%
same,"viability, T/C",[34],102%
same,"viability, T/C",[35],98.5%
same,"viability, T/C",[36],57%

# Reference: PubChem BioAssay AID1963849 (Molecular Pharmacology Branch, DTP, NCI, 2024)
